How the values were obtained:
[1] = tested on: nerve cells in cerebral slices; test: Apoptosis of nerve cells induced by MK-801, TUNEL staining of cerebral slices; type: in vivo; conditions: for apoptosis of nerve cells (TUNEL staining): berberine (5 mg/kg) alone, intraperitoneal, young white rats
Excerpt: All groups were intraperitoneally injected.
Experimental animals were sacrificed under anesthetization and their brains were excised. The excised brains were fixed with formalin and tissue sections were obtained. The tissue sections were stained by TUNEL method, and photographed (×1.25 and ×400) using an optical microscope (Olympus BX 50).
The number of TUNEL-positive dead nerve cells in the same area of cerebral slices of 12 rats per group was counted, and the numbers were averaged (FIG. 1).

[2] = tested on: PC12 cells; test: MTT assay, PC12 survival under serum deprivation-induced stress; type: cell-based, rat; conditions: for O.D.: 2 days; for Average (O.D. relative to RPMI): RPMI = 100%
Experimental: Cell injuries under condition of serum deprivation-induced stress and oxidative stress were measured by MTT assay. For MTT assay, Cells were seeded into N2 medium in an amount of 7.5×10^3 cells, and then a neurotoxin or a nerve growth factor was added thereto to differentiate the cells and then 0.1 volume of 4 mg/ml MTT was further added. The mixture was stored at 37° C. for 3-4 hours. After 100 μl of solubilization buffer was added to the mixture and then stored for 24 hours, O.D. values were measured by ELISA assay.
NGF, increasing cell survival and inducing cell differentiation, was used as a positive control. After the cells were treated with berberine (0.25˜3 μg/ml), the cells were cultured for 2 days to induce nerve regeneration (see, Table 3 and FIG. 5a).

Q: Which “apoptosis of nerve cells (TUNEL staining)” value [1] does the source give for `COc1ccc2cc3[n+](cc2c1OC)CCc1cc2c(cc1-3)OCO2` [Berberine, 7,8,13,13a-tetradihydro-9,10-dimethoxy-2,3-(methylenedioxy) berbinium] here?
A: did not induce apoptosis of nerve cells

Q: What about the “apoptosis of nerve cells (TUNEL staining)” value ([1]; listed as berberine) of the same molecule?
A: apoptosis of nerve cells was not observed

Q: And the “inhibition of apoptosis of nerve cells induced by MK-801” value ([1]; pretreated with berberine (5 mg/kg) for 5 days, then MK-801 (0.5 mg/kg) i.p.)?
A: considerably inhibits apoptosis of nerve cells induced by MK-801

Q: What about the O.D. ([2]; RPMI + berberine 0.25 μg/ml) of the same molecule?
A: 0.203

Q: What about the “Average (O.D. relative to RPMI)” value ([2]; RPMI + berberine 0.25 μg/ml) of the same molecule?
A: 121%

Q: And the O.D. ([2]; RPMI + berberine 1.5 μg/ml)?
A: 0.239

Q: What about the “Average (O.D. relative to RPMI)” value ([2]; RPMI + berberine 1.5 μg/ml) of the same molecule?
A: 142%

Q: What about the O.D. ([2]; RPMI + berberine 3 μg/ml) of the same molecule?
A: 0.262

Q: And the “Average (O.D. relative to RPMI)” value ([2]; RPMI + berberine 3 μg/ml)?
A: 156%

Q: What about the “cell survival rate versus control group” value ([2]; serum deprivation, berberine (1.5˜3 μg/ml elsewhere in the source)) of the same molecule?
A: 1.5 times

Source: patent US20040097534A1, “Composition for the protection and regeneration of nerve cells containing berberine derivatives” (EUGENBIO INC., priority 2001, published 2004)
